Test results taken from PubChem BioAssay AID2202558 (NIEHS Division of Translational Toxicology (DTT)).
Records with an inconclusive call do not appear. Calls of active or inactive are those of the source. No rule for the calls is given here. Where a SMILES comes first, the peptide text is derived from it.

Test system: mouse/rat in vivo micronucleus assay, summary call
Assay: In vivo micronucleus assay summary data
Excerpt: The erythrocyte micronucleus test examines the ability of substances to cause chromosome damage in developing red blood cells inside bone marrow. A micronucleus (literally, "little nucleus") is a biomarker of structural chromosome damage (e.g., breaks) and changes in chromosome number (e.g., chromosome loss). If a chromosome is broken or fails to migrate properly with other chromosomes during cell division, the broken piece or lost chromosome will form a small (micro) nucleus of its own in one of the two daughter cells produced. Detection of chromosomal damage is important because it has been linked to birth defects, infertility, and certain diseases, including cancer.
The micronucleus test is performed in rapidly dividing cell populations, and bone marrow is a site of rapid blood cell division. Both bone marrow and peripheral blood samples can be examined for the presence of micronuclei in red blood cells.
Animals are treated with a test substance once or daily over a period of time, and the frequency of micronucleated cells is determined 24-48 hours after the final treatment, depending on the source of the cells (bone marrow or blood) that are examined and the treatment regimen.
The test subjects are rodents (rats or mice) that are exposed to the test substance, usually by oral gavage or injection. Typically, one to three daily treatments of the test substance are administered over a range of doses; the highest dose tested is near the maximum tolerated dose. Groups of negative and positive control animals are included for each test. Bone marrow samples are obtained from all animals 24 hours after the last treatment, and red blood cells are examined for the presence of micronuclei.
B. Peripheral Blood Tests
Micronucleus tests are performed on male and female rodents that are exposed to the test substance orally, dermally, or by inhalation in subchronic (e.g., 28 or 90 days) or short term (e.g., 48-72 hours) toxicity studies. 24 to 48 hours after the final exposure, peripheral blood samples are obtained and red blood cells are examined for the presence of micronuclei. Samples may be examined using standard slide scoring procedures or automated flow cytometric approaches. Since 2007, NTP has routinely relied on flow cytometry to evaluate the frequency of micronucleated cells in peripheral blood.
Peripheral blood micronucleus assays are typically integrated into all NTP toxicity studies, and they also lend themselves to serial monitoring of micronucleus frequencies over time, since blood samples can be obtained without the need to sacrifice the animals.
Blood or bone marrow samples from treated animals are compared to samples from untreated animals. With the slide-based approach for data acquisition, 1000-2000 cells were scored per animal. Using flow cytometric procedures to evaluate blood samples, 20,000 immature red blood cells and around one million mature red blood cells are examined per animal, resulting in a marked increase in the ability to detect small changes in the frequency of micronucleated red blood cells. The data is analyzed using statistical methods to determine if there is a significant increase in the frequency of cells containing micronuclei. Both dose-related responses and the magnitude of response for each independent dose group are considered during the evaluation of the data. For a positive test, both a significant dose response (trend) and at least one significant dose group are required. If only one of these measures is present, the test is determined to be questionable. The absence of either condition results in a negative test. The final conclusions for micronucleus tests are determined by considering the results of statistical analyses, reproducibility of any observed effects, and the magnitude of the effects. Ultimately, both the biological significance as well as statistical significance is considered when reaching a final conclusion.
[…]

Row | Compound | outcome
1 | Oc1ccccc1 | active; positive
2 | Cc1c(N)cccc1N | active; positive
3 | CC(=O)C(C)=O | inactive; negative
4 | COC(=O)C(c1ccccc1)C1CCCCN1 (stereo not given) | inactive; negative
5 | COc1ccc2nc(N)sc2c1 | active; positive
6 | OC(O)C(Cl)(Cl)Cl | active; positive
7 | Nc1ncnc2c1ncn2[C@H]1CC[C@@H](CO)O1 | active; positive
8 | O=S(=O)(c1ccc(Cl)cc1)c1ccc(Cl)cc1 | active; positive
9 | CCOC(C)(C)C | inactive; negative
10 | ClCC(Cl)(Cl)Cl | active; positive
11 | C[N+](C)(C)Cc1ccccc1 | active; positive
12 | S=c1[nH]c2ccccc2s1 | inactive; negative
13 | O=C1c2ccccc2C(=O)c2ccccc21 | active; positive
14 | CC(C)(C)O | inactive; negative
15 | CN(C)c1ccc(C(=C2C=CC(=[N+](C)C)C=C2)c2ccccc2)cc1 | inactive; negative
16 | Nc1nc(=O)n([C@@H]2CS[C@H](CO)O2)cc1F | active; positive
17 | O=S1(=O)CCCC1 | inactive; negative
18 | CCCOC(=O)c1cc(O)c(O)c(O)c1 | active; positive
19 | C=CC(=O)NCNC(=O)C=C | active; positive
20 | O=S(=O)(O)C(F)(F)C(F)(F)C(F)(F)C(F)(F)C(F)(F)C(F)(F)C(F)(F)C(F)(F)F | active
21 | COC(=O)c1ccccc1C(=O)OC | inactive; negative
22 | CC(=O)C(C)O (stereo not given) | inactive; negative
23 | O[C@@H]([C@H](O)[C@H](O)CBr)[C@H](O)CBr | active; positive
24 | c1cc(OCC2CO2)cc(OCC2CO2)c1 (stereo not given) | active; positive
25 | Clc1ccc(N=Nc2ccc(Cl)c(Cl)c2)cc1Cl | active; positive
26 | CC(C)=CCl | active; positive
27 | O=C(O)C(Cl)Cl | active; positive

Row | Compound | outcome
28 | Nc1ccc(Cc2ccc(N)cc2)cc1 | active; positive (nonstandard protocol)
29 | C[C@]12CC[C@@H]3c4ccc(O)cc4CC[C@H]3[C@@H]1CC[C@@H]2O | inactive; negative
30 | Cc1cc(O)c2c(c1)C(=O)c1cc(O)cc(O)c1C2=O | active; positive
31 | CCCC=NO | active; positive
32 | CC(CCl)OP(=O)(OC(C)CCl)OC(C)CCl (stereo not given) | active; positive
33 | Nc1ccc(S(=O)(=O)Nc2ccccn2)cc1 | active; positive
34 | CCCCC(CC)COC(=O)c1ccccc1C(=O)OCC(CC)CCCC (stereo not given) | active; positive
35 | Nc1ccc(Cl)cc1N | active; positive
36 | c1ccc(N=NNc2ccccc2)cc1 | active; positive
37 | CC[C@]1(O)C[C@H]2CN(CCc3c([nH]c4ccccc34)[C@@](C(=O)OC)(c3cc4c(cc3OC)N(C=O)[C@H]3[C@@](O)(C(=O)OC)[C@H](OC(C)=O)[C@]5(CC)C=CCN6CC[C@]43[C@@H]65)C2)C1 | active; positive
38 | N[C@@H](Cc1ccc(N(CCCl)CCCl)cc1)C(=O)O | active; positive
39 | Brc1c(Br)c(Br)c(Oc2c(Br)c(Br)c(Br)c(Br)c2Br)c(Br)c1Br | active
40 | O=CC=CC=Cc1ccc([N+](=O)[O-])cc1 | active; positive (nonstandard protocol)
41 | CCN(N=O)C(N)=O | active; positive
42 | C=CC=C | active; positive (nonstandard protocol)
43 | Nc1ccc(Oc2ccc(N)cc2)cc1 | active; positive
44 | O=C1O[C@H]([C@@H](O)CO)C(O)=C1O | active; positive
45 | [O-][N+](=Nc1ccc(Cl)c(Cl)c1)c1ccc(Cl)c(Cl)c1 | active; positive
46 | CCCC[N+]1(C)CCCC1 | active; negative
47 | C=CCOC(C)=O | active; weakly positive
48 | O=NO | inactive; negative
49 | c1ccccc1 | active; positive
50 | [O-][Br+2]([O-])O | active; positive
51 | [O]=[Cr](=[O])([OH])[O][Cr](=[O])(=[O])[OH] | active; positive
52 | Cc1cn([C@H]2C=C[C@@H](CO)O2)c(=O)[nH]c1=O | active; positive
53 | CC(O)COC(C)(C)C (stereo not given) | active; weakly positive
54 | C=CC(=O)NCCNC(=O)C=C | active; positive (nonstandard protocol)

Row | Compound | outcome
55 | COC(=O)[C@H](Cc1ccccc1)NC(=O)[C@@H](N)CC(=O)O (H-Asp-Phe-OMe) | active; positive
56 | O=S(=O)([O-])[O-].[O]=[V+2] | inactive; negative
57 | ClC(Cl)C(Cl)Cl | active; positive
58 | CCn1cc[n+](C)c1 | inactive; negative
59 | Cn1c(=O)c2[nH]cnc2n(C)c1=O | active; positive
60 | CN(N=O)C(N)=O | active; positive
61 | C=CCc1cc(OC)c2c(c1)OCO2 | active; negative
62 | C[C@H](Cn1cnc2c(N)ncnc21)OCP(=O)(O)O | active; positive
63 | Cc1cnc[nH]1 | inactive; negative
64 | O=C(O)c1cc(N=Nc2ccc(S(=O)(=O)Nc3ccccn3)cc2)ccc1O | active; positive
65 | Nc1ncn([C@@H]2O[C@H](CO)[C@@H](O)[C@H]2O)c(=O)n1 | active; positive
66 | CC1=CC(=O)NS(=O)(=O)O1 | active; positive
67 | CS(=O)(=O)OC[C@H](O)[C@@H](O)COS(C)(=O)=O | active; positive
68 | Cc1ccccc1N | active; negative
69 | c12c3c4c5c1c1c6c7c2c2c8c3c3c9c4c4c%10c5c5c1c1c6c6c%11c7c2c2c7c8c3c3c8c9c4c4c9c%10c5c5c1c1c6c6c%11c2c2c7c3c3c8c4c4c9c5c1c1c6c2c3c41 | inactive; negative
70 | OCC1CO1 (stereo not given) | active; positive
71 | Cc1c2ccccc2c(C)c2c1ccc1ccccc12 | active; positive
72 | CC(C)CON=O | active; positive
73 | Oc1c(Cl)c(Cl)c(Cl)c(Cl)c1Cl | inactive; negative
74 | C(=NC1CCCCC1)=NC1CCCCC1 | active; weakly positive
75 | O=P1(N(CCCl)CCCl)NCCCO1 (stereo not given) | active; positive
76 | C=CC(N)=O | active; positive
77 | Cc1ccc([N+](=O)[O-])cc1 | inactive; negative
78 | O=C(O)C(F)(F)C(F)(F)C(F)(F)C(F)(F)C(F)(F)C(F)(F)C(F)(F)F | active
79 | C1CCC2CCCCC2C1 (stereo not given) | active; weakly positive
80 | CC(=O)CC(C)=O | active; positive
81 | ClC=CCCl | active; positive

Row | Compound | outcome
82 | CCOC(N)=O | active; positive
83 | CCCCOCCO | inactive; negative
84 | Nc1ccn([C@@H]2O[C@H](CO)[C@@H](O)[C@@H]2O)c(=O)n1 | active; positive
85 | BrCCBr | active; positive
86 | O=C(O)C(Br)Br | active; positive
87 | Nc1cccc(Cl)c1 | inactive; negative
88 | O=C1OC(c2ccc(O)cc2)(c2ccc(O)cc2)c2ccccc21 | active; positive
89 | Cc1cccc(Nc2cc(Cl)nc(SCC(=O)O)n2)c1C | inactive; negative
90 | OCc1c[nH]c2ccccc12 | inactive; negative
91 | NC(=O)NO | active; positive
92 | Nc1ccccc1Cl | active; negative
93 | CO[C@@]12[C@H](COC(N)=O)C3=C(C(=O)C(C)=C(N)C3=O)N1C[C@@H]1N[C@@H]12 | active; positive
94 | CBr | active; positive
95 | CCCCCC=CC=CC=O | active; equivocal
96 | CC1C(=O)C[C@]2(C(C)C)C[C@H]12 (stereo not given in full) | active; positive
97 | ClC(Cl)Cl | active; positive
98 | CC(=O)C1(C)CC2=C(CCCC2(C)C)CC1C (stereo not given) | active; positive
99 | Cc1cccc([N+](=O)[O-])c1 | inactive; negative
100 | C=CCOCC1CO1 (stereo not given) | active; positive
101 | Nc1ccccc1 | active; positive
102 | CN(C)c1ccc(C(c2ccccc2)c2ccc(N(C)C)cc2)cc1 | active; positive
103 | C=CCO | inactive; negative
104 | Nc1ccc(-c2ccccc2)cc1 | active; positive
105 | CC(C)N=C=NC(C)C | active; positive
